# PubChem BioAssay (NCI)
#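 Briefly, cells in 96-well plates were exposed to five compound concentrations for 48 h, and endpoints were estimated by linear interpolation. TGI marks complete inhibition of growth.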 Where a SMILES comes first, the peptide text is derived from it. The star is where a group is joined. Cbz = O=C(OCc1ccccc1)*; Boc = CC(C)(C)OC(=O)*; tBu = CC(C)(C)*
# Legend:
# Assay in all cases: growth of human tumour cells (NCI), 48 h
# [1] = system: SW-620 colon
# [2] = system: CCRF-CEM leukemia
# [3] = system: HOP-62 NSCLC
# [4] = system: SR leukemia
# [5] = system: HOP-92 NSCLC
# [6] = system: HCT-116 colon
# [7] = system: HT29 colon
# [8] = system: HL-60(TB) leukemia
# [9] = system: DU-145 prostate
# [10] = system: MDA-MB-231 breast
# [11] = system: MALME-3M melanoma
# [12] = system: SK-MEL-2 melanoma
# [13] = system: SF-268 CNS
# [14] = system: RXF 393 renal
# [15] = system: IGROV1 ovarian
# [16] = system: CAKI-1 renal
Compound,TGI [1] [µM],TGI [2] [µM],TGI [3] [µM],TGI [4] [µM],TGI [5] [µM],TGI [6] [µM],TGI [7] [µM],TGI [8] [µM],TGI [9] [µM],TGI [10] [µM],TGI [11] [µM],TGI [12] [µM],TGI [13] [µM],TGI [14] [µM],TGI [15] [µM],TGI [16] [µM]
COC(=O)CCc1cc(O)c2c(c1)C(C(=O)OC)C(c1ccc(O)c(O)c1)O2 (stereo unspecified),> 100,> 48.7,> 100,> 25.5,> 100,> 100,> 96.4,> 21.8,> 83,> 100,> 100,> 100,> 100,> 100,> 92.5,> 100
Cc1ccc(N=Nc2c(C)c(C#N)c(=S)n(C3OC(CO)C(O)C(O)C3O)c2C)cc1 (stereo unspecified),38.8,> 100,84.9,> 100,49.3,62.9,> 100,> 100,> 100,60,42.7,89.7,> 100,93.6,> 100,> 100
COC(=O)C1C(=O)C=CN([C@H](C)c2ccccc2)[C@@H]1Cc1ccc(OC)c(OCc2ccccc2)c1I (stereo partly specified),> 100,> 100,52.4,> 100,17.4,24.3,26.7,79,42.6,46.7,39.6,40,41.1,25.2,29.5,> 100
CC(=NNC(=S)Nc1ccc(C)cc1)c1cccc(C(C)=NNC(=S)Nc2ccc(C)cc2)n1,59.8,> 100,68.7,27.1,> 100,45.3,> 100,15.7,> 100,> 100,46.9,> 100,> 100,72,75.4,40.3
CC1ON2CCCC2[C@H]1C(=O)N1C2CC3CCC2(CS1(=O)=O)C3(C)C (stereo partly specified),> 100,> 100,> 100,> 100,> 100,> 100,> 100,> 100,> 100,> 100,> 100,> 100,> 100,> 100,> 100,> 100
CN1C2CCC1CC(CCNC(c1ccccc1)c1ccccc1)C2 (stereo unspecified),> 100,> 100,50.9,40.3,43.2,> 100,> 100,> 100,> 100,72.4,31.4,31.4,> 100,39.1,> 100,> 100
COc1ccc(O)c(/C(C)=N/NC(=S)N(C)C)c1,> 100,> 100,> 100,> 100,> 100,> 100,> 100,> 100,> 100,> 100,> 100,> 100,> 100,> 100,> 100,> 94.5
CN(C)CCCN1c2ccccc2Sc2cnccc21,> 100,> 100,> 100,> 100,> 100,> 100,> 100,> 100,> 100,> 100,> 100,94,> 100,> 100,> 100,> 100
CC(C)(C)C1=CC(=C(c2ccc(-c3c4nc(c(-c5ccc(C(=C6C=C(C(C)(C)C)C(=O)C(C(C)(C)C)=C6)c6cc(C(C)(C)C)c(O)c(C(C)(C)C)c6)cc5)c5ccc([nH]5)c(-c5ccc(C(=C6C=C(C(C)(C)C)C(=O)C(C(C)(C)C)=C6)c6cc(C(C)(C)C)c(O)c(C(C)(C)C)c6)cc5)c5nc(c(-c6ccc(C(=C7C=C(C(C)(C)C)C(=O)C(C(C)(C)C)=C7)c7cc(C(C)(C)C)c(O)c(C(C)(C)C)c7)cc6)c6ccc3[nH]6)C=C5)C=C4)cc2)c2cc(C(C)(C)C)c(O)c(C(C)(C)C)c2)C=C(C(C)(C)C)C1=O,> 100,> 100,> 100,> 100,> 100,> 100,> 100,> 100,> 100,> 100,> 100,> 100,> 100,> 100,> 100,> 100
Cc1cccc2c(N)c3cccc(C(=O)NCC[N+](C)(C)Cc4c([N+](=O)[O-])ncn4C)c3nc12,> 100,> 100,> 50.9,> 100,> 100,> 90.2,> 40.4,> 44.4,> 100,> 82.1,> 100,> 100,> 100,> 100,> 100,23.9
Cc1cc(C)n(C2OC(CO)C(O)C(O)C2O)c(=S)c1C#N (stereo unspecified),> 100,> 100,> 100,> 100,> 100,> 100,> 100,> 100,> 100,> 100,> 100,> 100,> 100,> 100,> 100,> 100
CC(OC(C)(C)C)C(NC(=O)C(CCCCNC(=O)OC(C)(C)C)NC(=O)C(Cc1c[nH]c2ccccc12)NC(=O)C(Cc1ccccc1)NC(=O)OCc1ccccc1)C(=O)NC(Cc1ccccc1)C(=O)O (stereo unspecified) (Cbz-FWK(Boc)T(tBu)F-OH; configuration not given here),> 100,> 100,> 100,> 100,> 100,> 100,> 100,> 100,> 100,> 100,> 100,92.8,> 100,> 100,98.9,> 100
COc1cc(/C=C2\N=C(c3ccccc3)N(c3nc4c(OC)ccc(OC)c4s3)C2=O)ccc1O,> 100,> 100,> 100,> 100,> 100,> 100,> 100,> 100,> 100,> 100,> 100,> 100,> 100,> 100,> 100,> 100
CNC(=O)N1CN(c2ccccc2)C2(CCN(CCCC3(c4ccc(F)cc4)OCCO3)CC2)C1=O,> 100,> 100,> 100,> 100,> 100,> 100,> 100,> 100,> 100,> 100,> 100,> 100,> 100,> 100,> 100,> 100
Clc1ccc(-c2c(C3=NCCCN3)nnn2-c2ccc(Cl)cc2)cc1,> 76.5,> 83.3,> 82.6,40.7,64.5,> 75.6,64.4,48.1,> 100,> 77.7,33,34.6,> 83.2,68.8,> 100,> 94.1
Cc1cc(=O)n2nc(CN3CCCCC3)sc2n1,> 100,> 100,> 100,> 100,> 100,> 100,> 100,> 100,> 100,> 100,> 100,> 100,> 100,> 100,> 100,> 100
